Test results: publication PMC9913752, “Proof-of-Concept Study of an Alpha-Fetoprotein-Derived Peptide for the Management of Canine Mammary Cancer” (Animals : an Open Access Journal from MDPI, 2023)
Where a SMILES comes first, the peptide text is derived from it. [ ]: non-standard residue; d: D form. Hyp = O=C(O)[C@@H]1C[C@@H](O)CN1

Key:
[1] = in vivo; design: species or system Macaca mulatta; conditions: monkey
Procedure: (§1) AFPep (4 mg/kg) was administered by parenteral (i.v., s.c.) as well as oral routes to normal adult mice, dogs, and monkeys. Blood samples were obtained from anesthetized mice via the retroorbital plexus. Blood samples from dogs and monkeys were obtained through an indwelling catheter in the cephalic vein by the veterinarian staff at Albany Medical College. Dogs were awake and alert during sampling; monkeys were under anesthesia, as previously described. For the oral route, gavage was used in mice and monkeys; enteric capsules ([…]) containing AFPep were used and were readily swallowed by dogs. AFPep blood levels were measured using lliquid chromatography and mass spectrometry, as previously described.

[2] = Clinical parameters in unanesthetized dogs; assay type: in vivo, dog
[3] = Blood chemistry and hematology after single i.v. dose in dogs; assay type: in vivo, dog; design: Bilirubin Conjugated / WBC: unit not given here
Procedure: Monkeys (Macaca mulatta, males) were contractually available through the Animal Resource Facility at Albany Medical College. The monkeys were used to assess pharmacokinetics and tolerability, in anticipation of future human studies. For dogs and monkeys, the full panels of clinical chemistry and hematology parameters were assessed. Monkeys were housed and cared for in accordance with the Guide for the Care and Use of Laboratory Animals (National Research Council, Washington, DC, USA). They were fed a standard Old World monkey diet, enriched with fruits and vegetables and other dietary novelties.

[4] = tested on: ER-positive primary canine mammary cancer cells; conditions: cited from earlier work
Procedure: It is important to note that during the development of AFPep, head-to-tail cyclization was carried out to increase stability as well as oral bioavailability. Other investigators have shown that the cyclization of peptides increases bioavailability.

[5] = tested on: MNU-induced mammary tumors; conditions: cited from earlier work
Source text: Table 1 The therapeutic and preventive efficacy of AFPep * in rodent models of mammary cancer. | column: MNU-Induced Mammary Tumors in Sprague Dawley Rats ^2 || As models for preventive interventions, two widely used mammary cancer induction models in rats were studied to assess the cancer prevention capabilities of AFPep.

[6] = Pharmacokinetics in dogs; assay type: in vivo; conditions: dog; for AUC / Cmax: plasma LC/MS/MS
Procedure: as §1

[7] = tested on: MCF-7 human breast cancer xenografts; conditions: cited from earlier work
Procedure: Table 1 The therapeutic and preventive efficacy of AFPep * in rodent models of mammary cancer. | column: MCF-7 Human Breast Cancer Growth in SCID Mice ^1 || The efficacy of AFPep in various models of mammary cancer has been shown in multiple reports. […] A 4 mg/kg dose was assessed parenterally, and the dosage was escalated to 100 mg/kg, administered orally.

[8] = unanesthetized dogs, 30 min Post AFPep, mean ± SE from 6 dogs
[9] = dogs ~10 kg, 24 h after i.v. 40 mg AFPep, average from 2 dogs
[10] = dogs ~10 kg, 24 h after i.v. 40 mg AFPep, average ± range from 2 dogs, in U/L (unit assumed)
[11] = dogs ~10 kg, 24 h after i.v. 40 mg AFPep, average ± range from 2 dogs, in g/dL (unit assumed)
[12] = dogs ~10 kg, 24 h after i.v. 40 mg AFPep, average ± range from 2 dogs, in mg/dL (unit assumed)
[13] = dogs ~10 kg, 24 h after i.v. 40 mg AFPep, average ± range from 2 dogs, in mmol/L (unit assumed)
[14] = p.o. enteric capsules (DRcaps), 4 mg/kg per footnote (100 mg/kg orally)

Compound: CC(C)[C@@H]1NC(=O)[C@@H]2C[C@@H](O)CN2C(=O)[C@H]([C@@H](C)O)NC(=O)[C@H](CCCCN)NC(=O)[C@H](CCC(=O)O)NC(=O)[C@H](CC(N)=O)NC(=O)CNC(=O)[C@@H]2C[C@@H](O)CN2C(=O)[C@H](CC(N)=O)NC1=O [AFPep] (cyclo(EKT[Hyp]VN[Hyp]GN))
- AUC ([1]; iv, 4 mg/kg): 26200 ng·h/mL
- Cmax ([1]; iv, 4 mg/kg): 13000 ng/mL
- half-life ([1]; iv, 4 mg/kg): 1.78 h
- half-life ([1]; po): 13.5 h
- AUC ([1]; sc, 4 mg/kg): 23400 ng·h/mL
- Cmax ([1]; sc, 4 mg/kg): 8200 ng/mL
- half-life ([1]; sc, 4 mg/kg): 0.45 h
- other clinical indicators (mobility, playfulness, appetite, stool consistency, heart rate, respiration rate, capillary refill time, body temperature) ([2]; dogs): remained normal
- reflux or vomiting after administration ([2]; dogs): no evidence of reflux or vomiting
- Capillary refill time ([2]; unanesthetized dogs, 30 min Post AFPep, 6 dogs): <2 s
- Body temperature ([2]; unanesthetized dogs, 30 min Post AFPep, mean from 6 dogs): 39.0 °C
- Heart Rate [2, 8]: 112 ± 5
- Respiration Rate [2, 8]: 28 ± 4
- liver enzymes ([3]; 4 mg/kg i.v., dogs, no anesthesia, mild manual restraint): No such elevations in liver enzymes
- changes to clinical chemistry and hematology values ([3]; 4 mg/kg i.v., normal beagle dogs): In no case did exposure to AFPep result in significant changes
- Bilirubin Conjugated [3, 9]: 0
- Total Bilirubin [3, 9]: 0.1 mg/dL
- WBC ([3]; dogs ~10 kg, 24 h after i.v. 40 mg AFPep, average ± range from 2 dogs): 7.0 ± 3
- Platelet ([3]; dogs ~10 kg, 24 h after i.v. 40 mg AFPep, average ± range from 2 dogs, in 10^3/µL (unit assumed)): 274 ± 21
- RBC ([3]; dogs ~10 kg, 24 h after i.v. 40 mg AFPep, average ± range from 2 dogs, in 10^6/µL (unit assumed)): 6.9 ± 1
- HCT ([3]; dogs ~10 kg, 24 h after i.v. 40 mg AFPep, average ± range from 2 dogs, in % (unit assumed)): 46 ± 1.5
- ALP [3, 10]: 33 ± 2
- ALT [3, 10]: 16 ± 1
- AST [3, 10]: 20 ± 1
- Creatine Kinase [3, 10]: 135 ± 2.7
- GGT [3, 10]: 3 ± 1
- MCV ([3]; dogs ~10 kg, 24 h after i.v. 40 mg AFPep, average ± range from 2 dogs, in fL (unit assumed)): 68 ± 0.8
- Albumin [3, 11]: 3.2 ± 0.1
- Globulin [3, 11]: 2.6 ± 0.1
- HGB [3, 11]: 15.9 ± 1
- Total Protein [3, 11]: 5.8 ± 0.1
- BUN [3, 12]: 13.2 ± 2
- Calcium [3, 12]: 10.3 ± 0.4
- Cholesterol [3, 12]: 171 ± 2
- Creatinine [3, 12]: 0.7 ± 0.1
- Glucose [3, 12]: 93 ± 9
- Phosphorous [3, 12]: 4.6 ± 0.2
- Bicarbonate TCO2 [3, 13]: 21 ± 1
- Chloride [3, 13]: 112 ± 1
- Potassium [3, 13]: 4.7 ± 0.1
- Sodium [3, 13]: 146 ± 2
- MCH ([3]; dogs ~10 kg, 24 h after i.v. 40 mg AFPep, average ± range from 2 dogs, in pg (unit assumed)): 23.2 ± 1
- activity against ER-positive primary canine mammary cancer cells growing in culture [4]: effective
- MNU-Induced Mammary Tumors in Sprague Dawley Rats, % of Rats with Tumors ([5]; MNU 50 mg/kg, AFPep 4 mg/kg s.c. once daily for 23 days from 10 days after MNU, p < 0.05): 40 * %
- latency period of cancer appearance ([5]; chemically induced model): prolonged
- T1/2 ([6]; in vivo): 0.65 h
- half-life ([6]; in vivo, iv, 4 mg/kg): 0.3 h
- half-life ([6]; in vivo, sc, 4 mg/kg): 1.08 h
- AUC [6, 14]: 14 min(µg/mL)
- Cmax [6, 14]: 100 ng/mL
- Cmax ([6]; iv, i.v., 4 mg/kg, non-linear regression, first-order PK model, read-out: Cmax): 35000 ng/mL
- AUC ([6]; iv, i.v., 4 mg/kg, read-out: AUC (converted)): 15000 ng·h/mL
- AUC ([6]; sc, s.c., 4 mg/kg, read-out: AUC (converted)): 13500 ng·h/mL
- Cmax ([6]; sc, s.c., 4 mg/kg, read-out: Cmax): 5800 ng/mL
- MCF-7 Human Breast Cancer Growth in SCID Mice (tumor volume) ([7]; AFPep 100 μg/mouse (4 mg/kg) oral gavage once daily for 14 days, established xenografts, p < 0.05 vs saline): 30 mm³
- blood levels of AFPep needed for anti-breast cancer activity [7]: 10^−7 M
- minimum blood level (Cmax) needed for stoppage of xenograft growth ([7]; dose-response studies, human breast cancer xenografts in immune-deficient mice): 0.1 µg/mL
- minimum AUC needed for stoppage of xenograft growth ([7]; dose-response studies, xenografts in mice): 6.5 µg·min/mL
- tumor outgrowth when dosing begun immediately following tumor implantation ([7]; once daily, 30-day observation period): completely prevented
- growth of established MCF-7 xenografts ([7]; once-daily oral 4 mg/kg over a 14-day period, immunodeficient mice): almost completely stopped in their growth
